Results taken from patent publication US20030017567A1, “Biological sample processing methods and compositions that include surfactants” (3M Innovative Properties Company, priority 2001, published 2003).
Marks after values point to notes of the source that are not given here.

Experiments:
[1] = biological target: T1, AMPLITAQ DNA polymerase (Taq polymerase) (Thermus aquaticus, UniProt P19821); assay: PCR amplification of PERV protease fragment (327 bp) in presence of dye/surfactant; product on agarose gel or quantitated with Agilent 2100 Bioanalyzer; assay type: biochemical; details: for effect of dye on PCR (Example 6): dye at typical concentrations of 0.1 or 0.2 mg/mL, without surfactant, agarose gel
T1 construct: purchased Applied Biosystems, Foster City, Calif
Experimental: Typically, a fresh stock solution of 5 milligrams (mg) of a water-insoluble near-infrared dye (NIR dye) was dissolved in 50 microliters (μL) of dimethylsulfoxide (DMSO) and brought up in water to a final volume of 1 milliliter (mL). This was then diluted out to various concentrations of dye. The diluted dye (typically 0.2 mg/mL) was then added to a surfactant solution (typically 4 wt-%) to form a complex. The complex was added to a PCR reaction.
PCR reactions were set up for a conserved sequence (327 bp) in the protease region of the genome of porcine endogenous retrovirus using a plasmid containing the PERV protease fragment, a forward primer and a reverse primer designed using a primer express program from Applied Biosystems, and AMPLITAQ DNA polymerase cocktail (commercially available from Applied Biosystems, Foster City, Calif.) and cycled in a thermocycler (9700, Applied Biosystems). The PCR reactions were typically carried out in 25-μL volumes. The NIR dye/surfactant mixture was added to the PCR cocktail to give the desired concentration of dye and surfactant in a total volume of 25 μL. A typical PCR cocktail contains 10x buffer, 2.5 μL; dNTPs, 2.0 μL (200 μM of each); forward primer, 0.5 μL (200 nM); reverse primer, 0.5 μL (200 nM); template DNA, 1.0 (1 ng/μL); Amplitaq, 0.25 μL (1.25 units); sterile water, 18.25 μL.
The products of PCR reactions were run on 1% agarose gel containing ethidium bromide and visualized using an ALPHA IMAGER (Alpha Innotech Corp., San Leandro, Calif.). […] However, a higher concentration of dye (0.1 mg/mL) for effective heating was needed. Thus, for all further PCR experiments, a dye concentration of 0.1 mg/mL or higher was used. […] Taq polymerase was tested from different manufacturers (Promega Corp., Madison, Wis.; Roche Biochemicals, Indianapolis, Ind.; Eppendorf, Scientific Inc., Westbury, N.Y.; Sigma, St. Louis, Mo.) and all the Taq polymerases were inhibited by 785 WS and SDA 8080.
In order to find out the optimum concentration of surfactant for PCR with NIR dye (785 WS and SDA 8080), the surfactant concentration in PCR reaction was varied from 0.1 wt-% to 4 wt-%. The PCR product formed was quantitated using DNA 7500 Labchip kit in Agilent 2100 Bioanalyzer (Agilent Inc, Paloalto, Calif.). The results shown in Table 3 indicate that increasing the concentration of surfactant relative to dye assists in the formation of PCR product.
A variety of dyes (NIR dyes such as IR782, IR768, SDA 2141, SDA8327, IR 830 WS, fluorescent dyes like oligreen and visible dyes like dichlorophenol, indophenol, saffranin, crystal violet, and commercially available food coloring) at typical concentrations of 0.1 or 0.2 mg/mL were allowed to interact with 4 wt-% PLURONIC F127 and each mixture was added to the PCR cocktail. The reaction was set up to amplify PERV protease fragment as described in Example 2 and the products of the reaction were analyzed by agarose gel electrophoresis.

[2] = Laser stability / photobleaching of dye solution on repeated laser exposure; assay type: physicochemical; details: for Laser Stability: 25 exposures
Experimental: An 813-nm diode laser source at 1.2W (1.9A) (Opto Power Corp., Tucson, Ariz. ) was used to heat a 10μL volume of near-IR dye at a concentration (0.1 mg/mL for 785 WS, 0.2 mg/iL for SDA 8080) to yield a 35° C. rise in temperature. The laser was manually turned on long enough for the temperature in a 10-μL well to increase by 35° C. (1-3 seconds) and was manually turned off when that level was attained. The temperature data was obtained using a thermocouple in the well, and the transmittance data was obtained via a power meter whose signals were digitized and graphically interpreted.
In another experiment, the 10 μL well was used to see if the dye/surfactant mixture could withstand laser cycling over a period of 30 cycles. The laser power was systematically varied from 60° C. to 94° C., 30 times.
Unlike in Example 8, some dyes and dye/surfactant complexes undergo photodegradation when exposed to laser beam. […] Specifically, in the case of 785 WS/BRIJ-97, the addition of ascorbic acid (typically 5 mg/mL) helped reduce the amount of photobleaching from 100% to 20% after 30 cycles. In some circumstances, rapid/controlled photodegradation may be desired. […] This would allow DNA tags (fluorescent or vis/IR) to be monitored at the end of the PCR reaction.
Vitamin E-TPGS has both surfactant as well as antioxidant properties.

[3] = Thermal degradation of dye: absorbance at beginning and end of thermal cycling; assay type: physicochemical
Source text: The dyes SDA 8080 and 785 WS were mixed with a variety of surfactants such as PLURONIC F-127, TWEEN-20, TRITON X-100, NP-40, BRIJ-97 and cycled in a thermocycler (9700, Applied Biosystems). Absorbance readings were taken at the beginning and end of thermal cycling using HP Chem Station (HP 8453, Agilent Technologies, Palo Alto, Calif.) at 785 nm for the 785 WS dye and 1040 nm for the SDA 8080 dye. […] Thus, the surfactant helps to protect thermal degradation of the dye.

[4] = 785 WS (0.1 mg/mL), surfactant 0.5 wt %, absorbance at 785 nm
[5] = 785 WS (0.1 mg/mL), surfactant 2 wt %, absorbance at 785 nm
[6] = 785 WS (0.1 mg/mL), surfactant 4 wt %, absorbance at 785 nm
[7] = SDA 8080 (0.2 mg/mL), surfactant 0.5 wt %, absorbance at 1040 nm
[8] = SDA 8080 (0.2 mg/mL), surfactant 2 wt %, absorbance at 1040 nm
[9] = SDA 8080 (0.2 mg/mL), surfactant 4 wt %, absorbance at 1040 nm
[10] = 785 WS 0.1 mg/mL, surfactant 0.1 wt %
[11] = 785 WS 0.1 mg/mL, surfactant 0.5 wt %
[12] = 785 WS 0.1 mg/mL, surfactant 1 wt %
[13] = 785 WS 0.1 mg/mL, surfactant 2 wt %
[14] = 785 WS 0.1 mg/mL, surfactant 4 wt %
[15] = SDA 8080 0.2 mg/mL, surfactant 0.5 wt %
[16] = SDA 8080 0.2 mg/mL, surfactant 1 wt %
[17] = SDA 8080 0.2 mg/mL, surfactant 2 wt %
[18] = SDA 8080 0.2 mg/mL, surfactant 4 wt %
[19] = surfactant 4 wt %, 785 WS 0 mg/mL (no dye), data from a different experiment under identical PCR conditions
[20] = surfactant 4 wt %, SDA 8080 0 mg/mL (no dye), data from a different experiment under identical PCR conditions
[21] = 785 WS (0.1 mg/mL), surfactant 0.1 wt %, absorbance at 785 nm
[22] = SDA 8080 (0.2 mg/mL), surfactant 0.1 wt %, absorbance at 1040 nm
[23] = SDA 8080 0.2 mg/mL, surfactant 0.1 wt %
[24] = 785 WS (0.1 mg/mL), surfactant 20 wt %, * can be made laser stable after addition of antioxidant
[25] = SDA 8080 (0.2 mg/mL), surfactant 20 wt %

T1 sequence (P19821 whole entry, the tested form may be a part): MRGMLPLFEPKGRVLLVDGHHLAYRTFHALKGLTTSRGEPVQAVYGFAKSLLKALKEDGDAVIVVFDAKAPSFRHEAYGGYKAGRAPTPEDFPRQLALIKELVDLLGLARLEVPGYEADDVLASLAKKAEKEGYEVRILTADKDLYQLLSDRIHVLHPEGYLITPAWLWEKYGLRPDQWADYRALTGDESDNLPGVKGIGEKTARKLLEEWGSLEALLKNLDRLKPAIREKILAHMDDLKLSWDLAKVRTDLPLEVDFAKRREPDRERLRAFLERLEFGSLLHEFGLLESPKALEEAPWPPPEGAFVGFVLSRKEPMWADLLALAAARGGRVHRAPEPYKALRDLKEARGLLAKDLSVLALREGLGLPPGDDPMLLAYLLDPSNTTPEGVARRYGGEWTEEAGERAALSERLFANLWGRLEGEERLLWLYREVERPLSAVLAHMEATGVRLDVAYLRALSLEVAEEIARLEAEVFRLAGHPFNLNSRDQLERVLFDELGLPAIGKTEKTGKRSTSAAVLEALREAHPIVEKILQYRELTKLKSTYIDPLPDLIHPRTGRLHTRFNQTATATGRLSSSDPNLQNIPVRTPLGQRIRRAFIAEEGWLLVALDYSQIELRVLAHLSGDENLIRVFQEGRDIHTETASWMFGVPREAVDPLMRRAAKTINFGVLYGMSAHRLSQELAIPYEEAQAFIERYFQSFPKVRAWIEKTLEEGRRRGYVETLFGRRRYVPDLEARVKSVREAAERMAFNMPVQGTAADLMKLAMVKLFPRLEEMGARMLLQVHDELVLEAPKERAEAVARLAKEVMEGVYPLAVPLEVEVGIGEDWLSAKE

Compound | effect of dye on PCR (Example 6) [1] | Thermal Degradation [3, 6] | Thermal Degradation [3, 9] | PCR Product [1, 10] | PCR Product [1, 11] | PCR Product [1, 12] | PCR Product [1, 13] | PCR Product [1, 14] | PCR Product [1, 15] | PCR Product [1, 16] | PCR Product [1, 17] | PCR Product [1, 18] | other results
dichlorophenol | inhibited PCR |  |  |  |  |  |  |  |  |  |  |  | 
Cc1cc2nc3cc(C)c(N)cc3[n+](-c3ccccc3)c2cc1N.[Cl-] [saffranin] | inhibited PCR |  |  |  |  |  |  |  |  |  |  |  | 
d-Alpha tocopheryl polyethylene glycol 1000 [Vitamin E TPGS] |  | 5.3% | 92.3% |  |  |  |  |  |  |  |  |  | Laser Stability ([2]; 785 WS (0.1 mg/mL), surfactant 4 wt %, * can be made laser stable after addition of antioxidant): + (less than a 20% degradation in dye absorbance over a period of 25 exposures); light stability ([2]; Vitamin E-TPGS 4 wt-% added to 785 WS 0.1 mg/mL, after 30 cycles of laser exposure): significantly increased; Thermal Degradation [3, 4]: 6.5%; Thermal Degradation [3, 5]: 4.0%; Thermal Degradation [3, 7]: 89.5%; Thermal Degradation [3, 8]: 88.9%
Nonyl phenoxy poly (ethyleneoxy) ethanol [NP-40] |  | 27.4% | 48.8% | 0 ng/µL | 0 ng/µL | 0 ng/µL | 0.3 ng/µL | 3.8 ng/µL | 23.3 ng/µL | 23.7 ng/µL | 17.2 ng/µL | 18 ng/µL | PCR Product ([1]; SDA 8080 0.1 mg/mL, surfactant 0.1 wt %): 0 ng/µL; PCR Product [1, 19]: 24.2* ng/μL; PCR Product [1, 20]: 24.2* ng/μL; Thermal Degradation [3, 21]: 20.2%; Thermal Degradation [3, 22]: 82.1%
Polyoxyethylene (10) oleyl ether [BRIJ 97] |  | 96.0% | 6.0% | 0 ng/µL | 0 ng/µL | 0 ng/µL | 13.8 ng/µL | 21.9 ng/µL | 19.3 ng/µL | 23.5 ng/µL | 25.5 ng/µL | 22.6 ng/µL | PCR Product [1, 23]: 18.7 ng/µL; Laser Stability [2, 24]: −* (greater than 20% degradation in dye absorbance over a period of 25 exposures); Laser Stability [2, 25]: + (less than a 20% degradation in dye absorbance over a period of 25 exposures); Thermal Degradation ([3]; 785 WS (0.1 mg/mL), surfactant 0.01 wt %, absorbance at 785 nm): 79.0%; Thermal Degradation [3, 4]: 95.0%; Thermal Degradation ([3]; 785 WS (0.1 mg/mL), surfactant 1 wt %, absorbance at 785 nm): 94.5%; Thermal Degradation [3, 5]: 94.5%; Thermal Degradation ([3]; SDA 8080 (0.2 mg/mL), surfactant 0.01 wt %, absorbance at 1040 nm): 86.2%; Thermal Degradation [3, 7]: 67.7%; Thermal Degradation ([3]; SDA 8080 (0.2 mg/mL), surfactant 1 wt %, absorbance at 1040 nm): 50.0%; Thermal Degradation [3, 8]: 29.4%
CN(C)c1ccc(C(=C2C=CC(=[N+](C)C)C=C2)c2ccc(N(C)C)cc2)cc1 [crystal violet] | inhibited PCR |  |  |  |  |  |  |  |  |  |  |  | 
Octyl phenoxy polyethoxyethanol [TRITON X-100] |  | 4.6% | 0.0% | 0 ng/µL | 0.1 ng/µL | 0.4 ng/µL | 2.2 ng/µL | 1.3 ng/µL | 2.3 ng/µL | 1.4 ng/µL | 1.9 ng/µL | 1.1 ng/µL | PCR Product [1, 23]: 0 ng/µL; PCR Product [1, 19]: 23.8* ng/μL; PCR Product [1, 20]: 23.8* ng/μL; Laser Stability [2, 24]: −* (greater than 20% degradation in dye absorbance over a period of 25 exposures); Laser Stability [2, 25]: + (less than a 20% degradation in dye absorbance over a period of 25 exposures); Thermal Degradation [3, 21]: 24.8%; Thermal Degradation [3, 22]: 76.0%; Thermal Degradation ([3]; SDA 8080 (0.2 mg/mL), surfactant 20 wt %, absorbance at 1040 nm): 7.1%
O=C1O[C@H]([C@@H](O)CO)C(O)=C1O [ascorbic acid] |  |  |  |  |  |  |  |  |  |  |  |  | effect of antioxidant on photobleaching of 785 WS ([2]; added to virtually any of the surfactants tested with 785 WS): reduced photobleaching significantly
